Test results taken from paper PMC2724550, “Citrus auraptene suppresses cyclin D1 and significantly delays N-methyl nitrosourea induced mammary carcinogenesis in female Sprague-Dawley rats” (BMC Cancer, 2009).
Marks after values point to notes of the source that are not given here.

Legend:
[1] = system: MCF-7 cells; experiment: MCF-7 cell proliferation assay with IGF-1 (MTS); type: cell-based, human; conditions: IGF-1 10 ng/mL, 24 hrs
Description: The human breast carcinoma cell line MCF-7 was obtained from ATCC (Manassas, VA) and grown in a sterile humidified environment at 37°C and 5% CO2: 95% air with complete DMEM media. The MCF-7 cells were plated in a 96 well plate at 30,000 cells/well at a confluency of 40%. The cells were serum starved for 24 h. At 22 h of serum starvation, the cells were treated with auraptene at 1 – 50 μM auraptene in DMSO (0.1%, v/v). The control cells received vehicle only (DMSO, 0.1% v/v). At 24 h of serum starvation, the cells were treated with IGF-1(10 ng/mL). After 24 hrs of IGF-1 treatment, the cells were treated with MTS [3-(4,5-dimethylthiazol-2-yl)-5-(3-carboxy methoxy phenyl)-2-(4-sulfophenyl)-2H-tetrazolium], for 2 h and the absorbance was measured at 490 nm.
Figure 2 Effects of auraptene on human breast carcinoma cells. (A) Effects of auraptene on MDA-MB-231 cell proliferation. Cells were serum starved for 5 h and then treated with 1–50 μM auraptene in 0.01% DMSO. Cell proliferation was assessed using the MTT reagent. Figures represent % vehicle control (means ± S.E.) # Replicates = 2 plates at 6 wells each for the treatment groups and 12 wells for the control group (* statistically different from control group, p < 0.05, One-way ANOVA, Tukey test). (B) Effects of auraptene on MCF-7 cell proliferation. Cells were serum starved for 24 h. […] Cell proliferation was assessed using the MTS reagent. […]

[2] = parameters: method as in PMID 18444171; conditions: male Sprague-Dawley rats, cited from earlier work
[3] = Stability of auraptene in diet by HPLC; type: physicochemical; conditions: animal room conditions, HPLC analysis, data not shown
[4] = system: N-methyl nitrosourea (MNU) induced mammary carcinogenesis; experiment: MNU-induced rat mammary carcinogenesis study, dietary auraptene; type: in vivo, female Sprague-Dawley rats; conditions: for Incidence (percentage of rats with tumor) / Multiplicity (average number of tumors per rat): means ± SE; for tumor burden: average tumor weight per rat / tumor burden: total tumor weights per rat: at necropsy
Description: A total of 128 female Sprague-Dawley rats (28 days of age), purchased from Harlan Teklad (Madison, WI), were used for this experiment. They were housed two per cage, in a temperature and humidity controlled AAALAC facility under 12 h light/dark cycle. All procedures were approved by LSUHSC Institutional Animal Care and Use Committee in accordance with NIH guidelines. They were fed test diets as described below and allowed access to food and water ad libitum.
Rats (28 days of age) were divided up randomly into groups of 24–26 each and were handled daily to get them accustomed to human touch. At 42 days of age the rats were shifted to the test diet. Control group and MNU only group were fed with Teklad (powdered diet) only. MNU/Auraptene 200 ppm group and MNU/Auraptene 500 ppm group received 200 ppm and 500 ppm of auraptene respectively, mixed in the diet for the duration of the study. The doses were selected from the pilot study conducted with a small number of animals. In addition to the 200 ppm dose of auraptene, which indicated the chemopreventive effect of auraptene, a higher dose of auraptene at 500 ppm was added to this study to see any increased chemopreventive effects. Auraptene has been administered in diet at 100 ppm and 500 ppm in other models of cancer. The diet was prepared once a week and stored in cold room. The food was replaced on Monday, Wednesday and Friday or as needed. […] At 50 days of age all the groups except the control group received intraperitoneal MNU injection (50 mg/kg bw in sterile acidified saline). The control group received vehicle only. The rats were palpated for tumors twice a week starting at 2 weeks after MNU administration. Any tumors felt during palpation were recorded by location. The rats were weighed once a week. A diet consumption analysis was done once to see if rats were consuming enough feed across all the groups and there was no significant difference in food consumption between the groups (data not shown). Any rats found to be moribund during the study were sacrificed within 24 h and necropsied. At 18 weeks after MNU administration, rats were euthanized by carbon dioxide asphyxiation and necropsied. The tumor location and weight of the tumor were marked in the necropsy sheet. Mammary fat pads and the tumors were collected in formalin, OCT compound and liquid nitrogen.
The rat body weight data was compared between groups by One-Way ANOVA followed by Tukey test. Groups were compared for the total number of tumors per rat by the nonparametric Kruskal-Wallis test. Time to tumor was estimated and compared among groups using survival curve analysis by the Log-rank test. The Cochran-Armitage test was used to test for trends in binomial response to different dose levels. Analysis was performed using StatXact (Cytel Software Corporation, Cambridge MA) and SPSS (SPSS Inc., Chicago IL). The cell proliferation assays and western blot data were analyzed by One-Way ANOVA followed by Tukey test.

[5] = system: c-Myc; parameters: method as in PMID 16979634; conditions: 25 μM auraptene, HT-29 human colorectal cancer cells; cited from earlier work
[6] = 500 μmol/kg bw p.o. gavage, 1–4 h
[7] = 200 ppm in diet, 112 days (16 weeks) after MNU
[8] = 200 ppm in diet, 126 days (18 weeks) after MNU
[9] = 200 ppm in diet, 126 days (18 weeks) after MNU, listed as Aur.
[10] = 500 ppm in diet, 16 weeks, vs MNU only group
[11] = 500 ppm in diet, 112 days (16 weeks) after MNU
[12] = 500 ppm in diet, 126 days (18 weeks) after MNU
[13] = 500 ppm in diet, 126 days (18 weeks) after MNU, listed as Aur.

In the case of `CC(C)=CCC/C(C)=C/COc1ccc2ccc(=O)oc2c1` [auraptene], the “suppression of MCF-7 cell proliferation” value ([1]; 20 μM auraptene) is given as 26%, the “suppression of MCF-7 cell proliferation” value ([1]; 50 μM auraptene) is given as 49% and the “concentration in large intestine” value [2, 6] is given as at most 20 nmol/g. The “concentration in small intestine” value [2, 6] was at most 100 nmol/g, the concentration in stomach [2, 6] was ~ 2000 nmol/g and the hepatic concentration ([2]; within 1–4 h of oral administration) was ~ 25 μm. For the same compound, the stability in diet [3] was “not degraded”, the “Median time to tumor” value ([4]; 200 ppm in diet) was 91 days and the “first palpable tumor after MNU injection” value ([4]; 200 ppm in diet) was 38 days. For the same compound, the “Incidence (percentage of rats with tumor)” value [4, 7] was 76.9 ± 8.4%, the “Multiplicity (average number of tumors per rat)” value [4, 7] was 1.69 ± 0.27 and the “Incidence (percentage of rats with tumor)” value [4, 8] was 81%. For the same compound, the “Multiplicity (average number of tumors per rat)” value [4, 8] was 2.08, the “Incidence (percentage of rats with tumor)” value [4, 9] was 80.7 ± 7.8% and the “Multiplicity (average number of tumors per rat)” value [4, 9] was 2.08 ± 0.33. The “tumor burden: average tumor weight per rat” value ([4]; 200 ppm in diet) was 2.94 ± 0.79 grams, the “tumor burden: total tumor weights per rat” value ([4]; 200 ppm in diet) was 6.52 ± 1.49 grams and the “delay of median time to tumor” value ([4]; 200 ppm in diet, compared to MNU group) was 11 days. For the same compound, the “Median time to tumor” value ([4]; 500 ppm in diet) was 119 days, the “first palpable tumor after MNU injection” value ([4]; 500 ppm in diet) was 49 days and the “inhibition of tumor multiplicity” value [4, 10] was 37%. The “suppression of tumor incidence” value [4, 10] was 46%, the “Incidence (percentage of rats with tumor)” value [4, 11] was 45.8 ± 10.4^b % and the “Multiplicity (average number of tumors per rat)” value [4, 11] was 1.21 ± 0.35^c. For the same compound, the “Incidence (percentage of rats with tumor)” value [4, 12] was 67%, the “Multiplicity (average number of tumors per rat)” value [4, 12] was 2.0 and the “Incidence (percentage of rats with tumor)” value [4, 13] was 66.7 ± 9.8%. For the same compound, the “Multiplicity (average number of tumors per rat)” value [4, 13] was 2.00 ± 0.43, the “tumor burden: average tumor weight per rat” value ([4]; 500 ppm in diet) was 1.79 ± 0.54 grams and the “tumor burden: total tumor weights per rat” value ([4]; 500 ppm in diet) was 6.50 ± 2.10 grams. For the same compound, the “delay of median time to tumor” value ([4]; 500 ppm in diet, compared to MNU only group) was 39 days, the “total number of tumors in group” value ([4]; 500 ppm in diet, end of study, MNU only group had 65) was 48 tumors and the “Median time to tumor” value ([4]; 500 ppm in diet, listed as Aur.) was 119^d days. The “expression of c-Myc” value [5] was “suppressed the expression of c-Myc”.
